Experimental data published in paper PMC8330742, “New benzothieno[2,3-c]pyridines as non-steroidal CYP17 inhibitors: design, synthesis, anticancer screening, apoptosis induction, and in silico ADME profile studies” (Journal of Enzyme Inhibition and Medicinal Chemistry, 2021).

Legend:
M14 = assay: NCI-60 SRB screen; format: cell-based, human; conditions: Homo sapiens; M14; single dose 10^−5 M; read-out: Growth inhibition (%)
A549/ATCC = assay: NCI-60 SRB screen; format: cell-based, human; conditions: Homo sapiens, single dose 10^−5 M, read-out: Growth inhibition (%)
RXF 393 = assay: NCI-60 SRB screen; format: cell-based, human; conditions: Homo sapiens; RXF 393; single dose 10^−5 M; read-out: Growth inhibition (%)
[1] = system: panel of 60 cancer cell lines; assay: NCI-60 SRB screen, mean or range over the panel; format: cell-based, human; conditions: Homo sapiens; mean over the cell lines; single dose 10^−5 M; read-out: Mean growth inhibition (%)
COLO 205 = assay: NCI-60 SRB screen; format: cell-based, human; conditions: Homo sapiens; COLO 205; single dose 10^−5 M; read-out: Growth inhibition (%)
OVCAR-8 = assay: NCI-60 SRB screen; format: cell-based, human; conditions: Homo sapiens; OVCAR-8; single dose 10^−5 M; read-out: Growth inhibition (%)
NCI-H522 = assay: NCI-60 SRB screen; format: cell-based, human; conditions: Homo sapiens; NCI-H522; single dose 10^−5 M; read-out: Growth inhibition (%)
786-0 = assay: NCI-60 SRB screen; format: cell-based; conditions: Homo sapiens; 786-0; single dose 10^−5 M; read-out: Growth inhibition (%)
HL-60(TB) = assay: NCI-60 SRB screen; format: cell-based, human; conditions: Homo sapiens; HL-60 (TB); single dose 10^−5 M; read-out: Growth inhibition (%)
UACC-62 = assay: NCI-60 SRB screen; format: cell-based, human; conditions: Homo sapiens; UACC-62; single dose 10^−5 M; read-out: Growth inhibition (%)
HCC-2998 = assay: NCI-60 SRB screen; format: cell-based, human; conditions: Homo sapiens; HCC-2998; single dose 10^−5 M; read-out: Growth inhibition (%)
SK-MEL-5 = assay: NCI-60 SRB screen; format: cell-based, human; conditions: Homo sapiens; SK-MEL-5; single dose 10^−5 M; read-out: Growth inhibition (%)
OVCAR-3 = assay: NCI-60 SRB screen; format: cell-based, human; conditions: Homo sapiens; OVCAR-3; single dose 10^−5 M; read-out: Growth inhibition (%)
NCI-H226 = assay: NCI-60 SRB screen; format: cell-based, human; conditions: Homo sapiens; NCI-H226; single dose 10^−5 M; read-out: Growth inhibition (%)
SF-268 = assay: NCI-60 SRB screen; format: cell-based, human; conditions: Homo sapiens; SF-268; single dose 10^−5 M; read-out: Growth inhibition (%)
NCI-H460 = assay: NCI-60 SRB screen; format: cell-based, human; conditions: Homo sapiens; NCI-H460; single dose 10^−5 M; read-out: Growth inhibition (%)
UO-31 = assay: NCI-60 SRB screen; format: cell-based, human; conditions: Homo sapiens; UO-31; single dose 10^−5 M; read-out: Growth inhibition (%)
CAKI-1 = assay: NCI-60 SRB screen; format: cell-based, human; conditions: Homo sapiens; CAKI-1; single dose 10^−5 M; read-out: Growth inhibition (%)
SW-620 = assay: NCI-60 SRB screen; format: cell-based; conditions: Homo sapiens; SW-620; single dose 10^−5 M; read-out: Growth inhibition (%)
SK-MEL-28 = assay: NCI-60 SRB screen; format: cell-based; conditions: Homo sapiens; SK-MEL-28; single dose 10^−5 M; read-out: Growth inhibition (%)
HCT-116 = assay: NCI-60 SRB screen; format: cell-based, human; conditions: Homo sapiens; HCT-116; single dose 10^−5 M; read-out: Growth inhibition (%)
K-562 = assay: NCI-60 SRB screen; format: cell-based, human; conditions: Homo sapiens, K562; K-562; single dose 10^−5 M; read-out: Growth inhibition (%)
SK-OV-3 = assay: NCI-60 SRB screen; format: cell-based, human; conditions: Homo sapiens; SK-OV-3; single dose 10^−5 M; read-out: Growth inhibition (%)
HOP-62 = assay: NCI-60 SRB screen; format: cell-based, human; conditions: Homo sapiens; HOP-62; single dose 10^−5 M; read-out: Growth inhibition (%)
OVCAR-4 = assay: NCI-60 SRB screen; format: cell-based, human; conditions: Homo sapiens; OVCAR-4; single dose 10^−5 M; read-out: Growth inhibition (%)
EKVX = assay: NCI-60 SRB screen; format: cell-based, human; conditions: Homo sapiens, single dose 10^−5 M, read-out: Growth inhibition (%)
TK-10 = assay: NCI-60 SRB screen; format: cell-based, human; conditions: Homo sapiens; TK-10; single dose 10^−5 M; read-out: Growth inhibition (%)
SN12C = assay: NCI-60 SRB screen; format: cell-based, human; conditions: Homo sapiens, SN12C; SN 12 C; single dose 10^−5 M; read-out: Growth inhibition (%)
HT-29 = assay: NCI-60 SRB screen; format: cell-based; conditions: Homo sapiens; HT-29; single dose 10^−5 M; read-out: Growth inhibition (%)
KM12 = assay: NCI-60 SRB screen; format: cell-based, human; conditions: Homo sapiens; KM12; single dose 10^−5 M; read-out: Growth inhibition (%)
NCI-H23 = assay: NCI-60 SRB screen; format: cell-based, human; conditions: Homo sapiens; NCI-H23; single dose 10^−5 M; read-out: Growth inhibition (%)
ACHN = assay: NCI-60 SRB screen; format: cell-based; conditions: Homo sapiens, single dose 10^−5 M, read-out: Growth inhibition (%)
LOX IMVI = assay: NCI-60 SRB screen; format: cell-based, human; conditions: Homo sapiens, single dose 10^−5 M, read-out: Growth inhibition (%)
HOP-92 = assay: NCI-60 SRB screen; format: cell-based, human; conditions: Homo sapiens; HOP-92; single dose 10^−5 M; read-out: Growth inhibition (%)
MDA-MB-435 = assay: NCI-60 SRB screen; format: cell-based; conditions: Homo sapiens, MDA-MB-435, read-out: Growth inhibition (%)
NCI/ADR-RES = assay: NCI-60 SRB screen; format: cell-based, human; conditions: Homo sapiens, single dose 10^−5 M, read-out: Growth inhibition (%)
UACC-257 = assay: NCI-60 SRB screen; format: cell-based, human; conditions: Homo sapiens, UACC-257; UACC-275 (so in the source); single dose 10^−5 M; read-out: Growth inhibition (%)
HCT-15 = assay: NCI-60 SRB screen; format: cell-based, human; conditions: Homo sapiens; HCT-15; single dose 10^−5 M; read-out: Growth inhibition (%)
SR = assay: NCI-60 SRB screen; format: cell-based; conditions: Homo sapiens, single dose 10^−5 M, read-out: Growth inhibition (%)
NCI-H322M = assay: NCI-60 SRB screen; format: cell-based, human; conditions: Homo sapiens, single dose 10^−5 M, read-out: Growth inhibition (%)
IGROV1 = assay: NCI-60 SRB screen; format: cell-based, human; conditions: Homo sapiens, IGROV-1; IGROV1; single dose 10^−5 M; read-out: Growth inhibition (%)
MOLT-4 = assay: NCI-60 SRB screen; format: cell-based; conditions: Homo sapiens; MOLT-4; single dose 10^−5 M; read-out: Growth inhibition (%)
SK-MEL-2 = assay: NCI-60 SRB screen; format: cell-based, human; conditions: Homo sapiens; SK-MEL-2; single dose 10^−5 M; read-out: Growth inhibition (%)
SF-295 = assay: NCI-60 SRB screen; format: cell-based, human; conditions: Homo sapiens; SF-295; single dose 10^−5 M; read-out: Growth inhibition (%)

O=C1NC(c2ccccc2[N+](=O)[O-])c2sc3c(F)cccc3c2C1Cl (stereo not shown) [Compound 4c, 4-Chloro-8-fluoro-1-(2-nitrophenyl)-1,2-dihydro[1]benzothieno[2,3-c] pyridine-3(4H)-one]
inhibition at 10 µM (M14): 1.7% | inhibition at 10 µM (A549/ATCC): 3.15% | inhibition at 10 µM (RXF 393): -17.3% | inhibition at 10 µM [1]: 3% | inhibition at 10 µM (COLO 205): -21.6% | inhibition at 10 µM (OVCAR-8): 1.73% | inhibition at 10 µM (NCI-H522): 7.95% | inhibition at 10 µM (786-0): -16.9% | inhibition at 10 µM (HL-60(TB)): -5.53% | inhibition at 10 µM (UACC-62): 20.8% | inhibition at 10 µM (HCC-2998): -27.4% | inhibition at 10 µM (SK-MEL-5): 8.45% | inhibition at 10 µM (OVCAR-3): 7.25% | inhibition at 10 µM (NCI-H226): 18.5% | inhibition at 10 µM (SF-268): 10.5% | inhibition at 10 µM (NCI-H460): 17.2% | inhibition at 10 µM (UO-31): 33.2% | inhibition at 10 µM (CAKI-1): 12.4% | inhibition at 10 µM (SW-620): 2.43% | inhibition at 10 µM (SK-MEL-28): 8.45% | inhibition at 10 µM (HCT-116): 11.4% | inhibition at 10 µM (K-562): 33.5% | inhibition at 10 µM (SK-OV-3): -9.85% | inhibition at 10 µM (HOP-62): 3.32% | inhibition at 10 µM (OVCAR-4): 11.1% | inhibition at 10 µM (EKVX): 11.8% | inhibition at 10 µM (TK-10): -52% | inhibition at 10 µM (SN12C): 4.76% | inhibition at 10 µM (HT-29): -9.93% | inhibition at 10 µM (KM12): -0.66% | inhibition at 10 µM (NCI-H23): 6.95% | inhibition at 10 µM (ACHN): -4.45% | inhibition at 10 µM (LOX IMVI): 8.72% | inhibition at 10 µM (HOP-92): -11.2% | inhibition at 10 µM (MDA-MB-435): -7.17% | inhibition at 10 µM (NCI/ADR-RES): -1.98% | inhibition at 10 µM (UACC-257): -0.18% | inhibition at 10 µM (HCT-15): -1.51% | inhibition at 10 µM (SR): 0.2% | inhibition at 10 µM (NCI-H322M): -4.23% | inhibition at 10 µM (IGROV1): 33% | inhibition at 10 µM (MOLT-4): 11.8% | inhibition at 10 µM (SK-MEL-2): -16.7% | inhibition at 10 µM (SF-295): -7.26%

O=C1NC(c2cccc([N+](=O)[O-])c2)c2sc3c(F)cccc3c2C1Cl (stereo not shown) [Compound 4d, 4-Chloro-8-fluoro-1-(3-nitrophenyl)-1,2-dihydro[1]benzothieno[2,3-c] pyridine-3(4H)-one]
inhibition at 10 µM (M14): -0.99% | inhibition at 10 µM (A549/ATCC): -2.89% | inhibition at 10 µM (RXF 393): -18.1% | inhibition at 10 µM [1]: 0.15% | inhibition at 10 µM (COLO 205): -17.2% | inhibition at 10 µM (OVCAR-8): -1.82% | inhibition at 10 µM (NCI-H522): 8.55% | inhibition at 10 µM (786-0): -11.2% | inhibition at 10 µM (HL-60(TB)): -16.8% | inhibition at 10 µM (UACC-62): 10.4% | inhibition at 10 µM (HCC-2998): -15.9% | inhibition at 10 µM (SK-MEL-5): 4.05% | inhibition at 10 µM (OVCAR-3): -4.91% | inhibition at 10 µM (NCI-H226): 5.26% | inhibition at 10 µM (SF-268): 6.94% | inhibition at 10 µM (NCI-H460): 1.43% | inhibition at 10 µM (UO-31): 34.7% | inhibition at 10 µM (CAKI-1): 27.4% | inhibition at 10 µM (SW-620): 3.43% | inhibition at 10 µM (SK-MEL-28): -10.5% | inhibition at 10 µM (HCT-116): 9.54% | inhibition at 10 µM (K-562): 23% | inhibition at 10 µM (SK-OV-3): -10.2% | inhibition at 10 µM (HOP-62): 1.22% | inhibition at 10 µM (OVCAR-4): 1.96% | inhibition at 10 µM (EKVX): 0.87% | inhibition at 10 µM (TK-10): -40.7% | inhibition at 10 µM (SN12C): 2.95% | inhibition at 10 µM (HT-29): 2.3% | inhibition at 10 µM (KM12): -5.21% | inhibition at 10 µM (NCI-H23): -1.19% | inhibition at 10 µM (ACHN): 6.28% | inhibition at 10 µM (LOX IMVI): 5.22% | inhibition at 10 µM (HOP-92): 5.89% | inhibition at 10 µM (MDA-MB-435): -7.63% | inhibition at 10 µM (NCI/ADR-RES): -8.05% | inhibition at 10 µM (UACC-257): -15.8% | inhibition at 10 µM (HCT-15): 1.31% | inhibition at 10 µM (SR): 11.4% | inhibition at 10 µM (NCI-H322M): -0.93% | inhibition at 10 µM (IGROV1): 22.8% | inhibition at 10 µM (MOLT-4): 9.18% | inhibition at 10 µM (SK-MEL-2): -26.1% | inhibition at 10 µM (SF-295): -3.1%
